Measurements taken from patent US20170016886A1, “INDUCED PLURIPOTENT STEM CELL MODEL OF NOONAN SYNDROME AND USE THEREOF” (KOREA ADVANCED INSTITUTE OF SCIENCE AND TECHNOLOGY, priority 2014, published 2017).

What was measured:
[1] = system: neural rosettes chemically differentiated from NS-iPSCs; assay: mRNA expression of ectoderm, neural rosette and neural marker genes in neural rosettes chemically differentiated from NS-iPSCs (RT-PCR, q-PCR); format: cell-based, human; conditions: stepwise treatment with both dorsomorphin (5 μM) and SB431542 (10 μM) together, versus normal control (H9, CRL12)
Experimental: To investigate whether or not the neural marker genes were normally expressed in the neural rosettes chemically differentiated from NS-iPSCs, the mRNA expression levels of the ectoderm genes PAX6, ZIC1, NESTIN, and VIMENTIN, and the NR genes PLZF, NR2F1, HES5, and DACH1, and the neural genes TUJ1, ASCL1, and NF1 were measured in the chemically differentiated NS-EBs. Particularly, the neural rosettes chemically differentiated from NS-iPSCs by the same manner as described in Example <6-1> were prepared. […] The expressions of those genes were observed by RT-PCR at mRNA level. As for the normal control, the neural rosettes chemically differentiated from H9 cell line and CRL12 in Example <6-1> were used. […] The expression of NR2F1 gene was measured by q-PCR at mRNA level. As the control group for the normalization of the expression level, GAPDH gene was used so that the expression was also measured. ΔCt value of each gene was calculated by the difference between Ct value of GAPDH and Ct value of NR2F1 gene. As for the control, the human normal embryonic stem cell line H9 and the human normal fibroblast-derived iPSCs (CRL12) were induced into neural rosettes via chemical treatments as described in Example <6-1>. The expressions of those neural rosettes were compared with the gene expression of NS-NR. The results are presented by the fold change calculated by the mathematical formula 1 above.

[2] = system: NS-iPSCs (Noonan syndrome patient-derived induced pluripotent stem cells); assay: Chemically directed differentiation of NS-iPSCs into embryoid bodies and neural rosettes, cell morphology; format: cell-based, human; conditions: stepwise treatment with both dorsomorphin (5 μM) and SB431542 (10 μM) together; NS-iPSC #4 and #5; compared with natural differentiation and normal control (H9, CRL12)
Description: Due to the abnormality in the signal transduction system in Noonan syndrome, EBs and neural rosettes naturally differentiated from NS-iPSCs were abnormally developed. To overcome this problem, the present inventors induced chemically directed differentiation of EBs and neural rosettes from NS-iPSCs by using dorsomorphin (DM) and SB431542 according to the schematic diagram of FIG. 18 (FIG. 18 and Table 6). Particularly, the colonies of NS-iPSC #4 and NS-iPSC #5 induced by the same manner as described in Example <2-1> were quartered by using 1 ml insulin syringe. The quartered NS-iPSCs were loaded on ultra-low attachment dish (SPL life sciences Co., Ltd, Korea), which were resuspended in 4 ml of embryoid body differentiation media which was the DMEM/F12 (Invitrogen, USA) containing 10% serum replacement (SR; GIBCO, USA). The resuspended NS-iPSCs were cultured for 4 days to induce the differentiation into NS-EBs. Then, the differentiated NS-EBs were obtained and cultured for 4˜5 days on the matrigel (1:50, BD biosciences, USA) coated dish in the neural rosette media which consists of DMEM/F12 supplemented with N2, B27 and […] of bFGF (FGF2, R&D systems, USA). The generated Noonan syndrome-derived neural rosettes were mechanically selected and placed on the fibronectin (BD biosciences, USA) coated dish, followed by culture in the neural rosette media for 4˜5 days. […]

NC(=O)c1ccc(-c2nc(-c3ccc4c(c3)OCO4)c(-c3ccccn3)[nH]2)cc1 [SB431542]
expression of NR2F1 ([1]; mRNA level in NS neural rosettes): decreased | expressions of ectoderm, neural rosette, and neural marker genes ([1]; mRNA level): adjusted to the nearly normal level | cell morphology of the chemically differentiated EBs and neural rosettes [2]: recovered to a normal shape
